Assay results taken from patent US7745459B2, “Quinolizinone compound and use thereof as HIV integrase inhibitor” (Japan Tobacco Inc., priority 2004, dated 2010).

Biological target: T1, HIV integrase (Human immunodeficiency virus type 1 group M subtype B, UniProt P12497, F1332H)
T1 construct: HIV integrase full length gene; made in house; host or cells: Escherichia coli BL21 (DE3)
Assay: Determination of enzyme (HIV integrase) inhibitory activity
Assay type: biochemical
Conditions: recombinant integrase protein (phenylalanine at codon 185 substituted by histidine); donor/target DNA, absorbance at 450 nm; read-out: Anti-integrase activity (IC50 value)
Text: The following explains evaluation methods of the HIV integrase inhibitory activity of the compound of the present invention.
HIV integrase full length gene (J. Virol., 67, 425-437 (1993)) in which phenylalanine at codon 185 was substituted by histidine, was inserted between the restriction enzyme NdeI and XhoI sites of plasmid pET21a(+) (Novagen), whereby an integrase expression vector pET21a-INH was constructed.
Escherichia coli recombinant BL21 (DE3) transformed with plasmid pET21a-INH obtained in (i) was shake cultured at 37° C. in a liquid medium containing ampicillin. When the culture reached the logarithmic growth phase, isopropyl-β-D-thiogalactopyranoside was added to promote expression of integrase gene. The culture was continued for 3 hr to promote accumulation of the integrase protein. The recombinant E. coli was collected in pellets by centrifugal separation and preserved at −80° C.
The E. coli was suspended in Lysis buffer (20 mM HEPES (pH 7.5), 5 mM DTT, 10 mM CHAPS, 10% glycerol) containing 1 M sodium chloride and subjected to repeat pressurization and depressurization for rupture, and centrifugal separation at 4° C., 40,000×g, 60 min to recover a water-soluble fraction (supernatant). This was diluted 10-fold with Lysis buffer free of sodium chloride, mixed with SP-Sepharose (Pharmacia Corporation) and stirred at 4° C. for 60 min to allow adsorption of integrase protein to the resin. The resin was washed with Lysis buffer containing 100 mM sodium chloride and the integrase protein was eluted with Lysis buffer containing 1 M sodium chloride.
The eluted integrase protein solution was subjected to a Superdex 75 (Pharmacia Corporation) column for gel filtration. The protein was eluted with Lysis buffer containing 1 M sodium chloride.
The obtained fractions of the integrase protein were collected and preserved at −80° C.
The following DNA synthesized by Greiner was dissolved in TE buffer (10 mM Tris-hydrochloric acid (pH 8.0), 1 mM EDTA) and mixed with donor DNA, target DNA, and each complementary strand (+ and − strands) to 1 μM. The mixture was heated at 95° C. for 5 min, 80° C. for 10 min, 70° C. for 10 min, 60° C. for 10 min, 50° C. for 10 min and 40° C. for 10 min and kept at 25° C. to give a double stranded DNA, which was used for the test.
The donor DNA was diluted with TE buffer to 10 nM, of which 50 μl was added to each well of streptavidin-coated microtiter plate (Roche) and allowed to adsorb at 37° C. for 60 min. The plate was washed with phosphate buffer (Dulbecco's PBS, Sanko Junyaku Co., Ltd.) containing 0.1% Tween 20 and phosphate buffer. Then, a reaction mixture (70 μl) having the following composition, a test substance (10 μl) diluted with the reaction mixture and 100 μg/ml integrase protein (10 μl) were added to each well and reacted at 37° C. for 60 min. Composition of the reaction mixture: 30 mM MOPS (3-morpholinopropanesulfonic acid), 5 mM magnesium chloride, 3 mM DTT (dithiothreitol), 0.1 mg/ml BSA (bovine serum albumin), 5% glycerol, 10% DMSO (dimethyl sulfoxide), 0.01% Tween 20.
Then, 50 nM target DNA (10 μl) was added, and the mixture was reacted at 37° C. for 10 min and washed with phosphate buffer containing 0.1% Tween 20 to stop the reaction.
Then, 100 mU/ml peroxidase labeled anti-digoxigenin antibody solution (Roche, 100 μl) was added, and the mixture was reacted at 37° C. for 60 min, followed by washing with phosphate buffer containing 0.1% Tween 20.
A peroxidase color solution (Bio Rad, 100 μl) was added and allowed to react at room temperature for 4 min. The color reaction was stopped by adding 1N sulfuric acid (100 μl). The absorbance at 450 nm was measured. […]

| Compound | IC50 [nM] |
| --- | --- |
| O=C(O)c1ccc2ccc(Cc3cccc(Cl)c3F)cn2c1=O [Example 2, 7-(3-chloro-2-fluorobenzyl)-4-oxo-4H-quinolizine-3-carboxylic acid] | 100 to 1000 |
| CCc1cc(C(=O)O)c(=O)n2cc(Cc3cccc(Cl)c3F)ccc12 [Example 4, 7-(3-chloro-2-fluorobenzyl)-1-ethyl-4-oxo-4H-quinolizine-3-carboxylic acid] | 10 to 100 |
| O=C(O)c1cc(CCO)c2ccc(Cc3cccc(Cl)c3F)cn2c1=O [Example 7, 7-(3-chloro-2-fluorobenzyl)-1-(2-hydroxyethyl)-4-oxo-4H-quinolizine-3-carboxylic acid] | 10 to 100 |
| COc1cc2c([C@H](CO)C(C)C)cc(C(=O)O)c(=O)n2cc1Cc1cccc(Cl)c1F [Example 10, 7-(3-chloro-2-fluorobenzyl)-1-((R)-1-hydroxymethyl-2-methylpropyl)-8-methoxy-4-oxo-4H-quinolizine-3-carboxylic acid] | < 10 |
| O=C(O)c1ccc2ccc(Cc3ccccc3)cn2c1=O [Example 11, 7-benzyl-4-oxo-4H-quinolizine-3-carboxylic acid] | 1000 to 10000 |
| CCCc1cc(C(=O)O)c(=O)n2cc(Cc3cccc(Cl)c3F)ccc12 [Example 12, 7-(3-chloro-2-fluorobenzyl)-4-oxo-1-propyl-4H-quinolizine-3-carboxylic acid] | 10 to 100 |
| CC(C)c1cc(C(=O)O)c(=O)n2cc(Cc3cccc(Cl)c3F)ccc12 [Example 13, 7-(3-chloro-2-fluorobenzyl)-1-isopropyl-4-oxo-4H-quinolizine-3-carboxylic acid] | 10 to 100 |
| C[C@@H](CO)c1cc(C(=O)O)c(=O)n2cc(Cc3cccc(Cl)c3F)ccc12 [Example 14, 7-(3-chloro-2-fluorobenzyl)-1-((R)-2-hydroxy-1-methylethyl)-4-oxo-4H-quinolizine-3-carboxylic acid] | 10 to 100 |
| CC(C)C(CO)c1cc(C(=O)O)c(=O)n2cc(Cc3cccc(Cl)c3F)ccc12 (centres unmarked) [Example 15, 7-(3-chloro-2-fluorobenzyl)-1-(1-hydroxymethyl-2-methylpropyl)-4-oxo-4H-quinolizine-3-carboxylic acid] | 10 to 100 |
| CC(C)(C)[C@@H](CO)c1cc(C(=O)O)c(=O)n2cc(Cc3cccc(Cl)c3F)ccc12 [Example 16, 7-(3-chloro-2-fluorobenzyl)-1-((R)-1-hydroxymethyl-2,2-dimethylpropyl)-4-oxo-4H-quinolizine-3-carboxylic acid] | < 10 |
| COc1cc2c([C@H](CO)C(C)(C)C)cc(C(=O)O)c(=O)n2cc1Cc1cccc(Cl)c1F [Example 17, 7-(3-chloro-2-fluorobenzyl)-1-((R)-1-hydroxymethyl-2,2-dimethylpropyl)-8-methoxy-4-oxo-4H-quinolizine-3-carboxylic acid] | < 10 |
| O=C(O)c1cc(CO)c2ccc(Cc3cccc(Cl)c3F)cn2c1=O [Example 18, 7-(3-chloro-2-fluorobenzyl)-1-hydroxymethyl-4-oxo-4H-quinolizine-3-carboxylic acid] | 10 to 100 |
| COCc1cc(C(=O)O)c(=O)n2cc(Cc3cccc(Cl)c3F)ccc12 [Example 19, 7-(3-chloro-2-fluorobenzyl)-1-methoxymethyl-4-oxo-4H-quinolizine-3-carboxylic acid] | 100 to 1000 |
| NCc1cc(C(=O)O)c(=O)n2cc(Cc3cccc(Cl)c3F)ccc12 [Example 20, 1-aminomethyl-7-(3-chloro-2-fluorobenzyl)-4-oxo-4H-quinolizine-3-carboxylic acid hydrochloric acid] | 100 to 1000 |
| CNCc1cc(C(=O)O)c(=O)n2cc(Cc3cccc(Cl)c3F)ccc12 [Example 21, 7-(3-chloro-2-fluorobenzyl)-1-methylaminomethyl-4-oxo-4H-quinolizine-3-carboxylic acid] | 100 to 1000 |
| CC(=O)NCc1cc(C(=O)O)c(=O)n2cc(Cc3cccc(Cl)c3F)ccc12 [Example 22, 1-(acetylaminomethyl)-7-(3-chloro-2-fluorobenzyl)-4-oxo-4H-quinolizine-3-carboxylic acid] | 10 to 100 |
| CS(=O)(=O)NCc1cc(C(=O)O)c(=O)n2cc(Cc3cccc(Cl)c3F)ccc12 [Example 23, 7-(3-chloro-2-fluorobenzyl)-1-(methylsulfonylaminomethyl)-4-oxo-4H-quinolizine-3-carboxylic acid] | 1000 to 10000 |
| COC(=O)NCc1cc(C(=O)O)c(=O)n2cc(Cc3cccc(Cl)c3F)ccc12 [Example 24, 7-(3-chloro-2-fluorobenzyl)-1-(methoxycarbonylaminomethyl)-4-oxo-4H-quinolizine-3-carboxylic acid] | 10 to 100 |
| NC(=O)Cc1cc(C(=O)O)c(=O)n2cc(Cc3cccc(Cl)c3F)ccc12 [Example 26, 1-carbamoylmethyl-7-(3-chloro-2-fluorobenzyl)-4-oxo-4H-quinolizine-3-carboxylic acid] | 10 to 100 |
| O=C(O)c1cc(NCCO)c2ccc(Cc3cccc(Cl)c3F)cn2c1=O [Example 27, 7-(3-chloro-2-fluorobenzyl)-1-(2-hydroxyethylamino)-4-oxo-4H-quinolizine-3-carboxylic acid] | 100 to 1000 |
| CS(=O)(=O)Nc1cc(C(=O)O)c(=O)n2cc(Cc3cccc(Cl)c3F)ccc12 [Example 29, 7-(3-chloro-2-fluorobenzyl)-1-methylsulfonylamino-4-oxo-4H-quinolizine-3-carboxylic acid] | 100 to 1000 |
| N#Cc1cc(C(=O)O)c(=O)n2cc(Cc3cccc(Cl)c3F)ccc12 [Example 33, 7-(3-chloro-2-fluorobenzyl)-1-cyano-4-oxo-4H-quinolizine-3-carboxylic acid] | 10 to 100 |
| O=C(O)c1cc(CCO)c2ncc(Cc3cccc(Cl)c3F)cn2c1=O [Example 34, 3-(3-chloro-2-fluorobenzyl)-9-(2-hydroxyethyl)-6-oxo-6H-pyrido[1,2-a]pyrimidine-7-carboxylic acid] | 100 to 1000 |
| CC(C)(C)OC(=O)NCc1cc(C(=O)O)c(=O)n2cc(Cc3cccc(Cl)c3F)ccc12 [Example 35, 1-(tert-butoxycarbonylamino)methyl-7-(3-chloro-2-fluorobenzyl)-4-oxo-4H-quinolizine-3-carboxylic acid] | 10 to 100 |
| O=C(O)Cc1cc(C(=O)O)c(=O)n2cc(Cc3cccc(Cl)c3F)ccc12 [Example 36, 1-carboxymethyl-7-(3-chloro-2-fluorobenzyl)-4-oxo-4H-quinolizine-3-carboxylic acid] | 10 to 100 |
| CC(C)(C)C(=O)NCc1cc(C(=O)O)c(=O)n2cc(Cc3cccc(Cl)c3F)ccc12 [Example 37, 7-(3-chloro-2-fluorobenzyl)-1-(2,2-dimethylpropionylamino)methyl-4-oxo-4H-quinolizine-3-carboxylic acid] | 10 to 100 |
| CN(C)Cc1cc(C(=O)O)c(=O)n2cc(Cc3cccc(Cl)c3F)ccc12 [Example 38, 7-(3-chloro-2-fluorobenzyl)-1-dimethylaminomethyl-4-oxo-4H-quinolizine-3-carboxylic acid] | 100 to 1000 |
| O=C(CO)NCc1cc(C(=O)O)c(=O)n2cc(Cc3cccc(Cl)c3F)ccc12 [Example 39, 7-(3-chloro-2-fluorobenzyl)-1-[(2-hydroxyacetylamino)methyl]-4-oxo-4H-quinolizine-3-carboxylic acid] | 10 to 100 |
| COCC(=O)NCc1cc(C(=O)O)c(=O)n2cc(Cc3cccc(Cl)c3F)ccc12 [Example 40, 7-(3-chloro-2-fluorobenzyl)-1-[(2-methoxyacetylamino)methyl]-4-oxo-4H-quinolizine-3-carboxylic acid] | 10 to 100 |
